Where two headings read alike, the source gives them in different places.
Key:
Type in all cases: cell-based
[1] = system: K-562; assay: NCI60 five-dose screen; conditions: Homo sapiens, K562
[2] = system: MOLT-4; assay: NCI60 five-dose screen; conditions: Homo sapiens, MOLT-4
[3] = system: NCI-H322M; assay: NCI60 five-dose screen; conditions: Homo sapiens
[4] = system: HT29; assay: NCI60 five-dose screen; conditions: Homo sapiens, HT-29
[5] = system: SF-539; assay: NCI60 five-dose screen; conditions: Homo sapiens, SF-539
[6] = system: SNB-19; assay: NCI60 five-dose screen; conditions: Homo sapiens, SNB-19
[7] = system: LOX IMVI; assay: NCI60 five-dose screen; conditions: Homo sapiens
[8] = system: M14; assay: NCI60 five-dose screen; conditions: Homo sapiens, M14
[9] = system: OVCAR-5; assay: NCI60 five-dose screen; conditions: Homo sapiens, OVCAR-5
[10] = system: OVCAR-8; assay: NCI60 five-dose screen; conditions: Homo sapiens, OVCAR-8
[11] = system: NCI/ADR-RES; assay: NCI60 five-dose screen; conditions: Homo sapiens
[12] = system: 786-0; assay: NCI60 five-dose screen; conditions: Homo sapiens, 786-0
[13] = system: PC-3; assay: NCI60 five-dose screen; conditions: Homo sapiens, PC-3
[14] = system: BT-549; assay: NCI60 five-dose screen; conditions: Homo sapiens, BT-549
[15] = system: Non-small Cell Lung Cancer panel; assay: NCI60 five-dose screen, panel mean; conditions: Homo sapiens
[16] = system: Colon Cancer panel; assay: NCI60 five-dose screen, panel mean; conditions: Homo sapiens
[17] = system: Melanoma panel; assay: NCI60 five-dose screen, panel mean; conditions: Homo sapiens
[18] = system: Renal Cancer panel; assay: NCI60 five-dose screen, panel mean; conditions: Homo sapiens
[19] = system: MOLT-4; assay: NCI60 one-dose screen; conditions: Homo sapiens, MOLT-4, read-out: Growth percent
[20] = system: RPMI-8226; assay: NCI60 one-dose screen; conditions: Homo sapiens, RPMI-8226, read-out: Growth percent
[21] = system: SR; assay: NCI60 one-dose screen; conditions: Homo sapiens, read-out: Growth percent
[22] = system: HOP-92; assay: NCI60 one-dose screen; conditions: Homo sapiens, HOP-92, read-out: Growth percent
[23] = system: NCI-H522; assay: NCI60 one-dose screen; conditions: Homo sapiens, NCI-H522, read-out: Growth percent
[24] = system: HCC-2998; assay: NCI60 one-dose screen; conditions: Homo sapiens, HCC 2998, read-out: Growth percent
[25] = system: HCT-15; assay: NCI60 one-dose screen; conditions: Homo sapiens, HCT-15, read-out: Growth percent
[26] = system: KM12; assay: NCI60 one-dose screen; conditions: Homo sapiens, KM12, read-out: Growth percent
[27] = system: SW-620; assay: NCI60 one-dose screen; conditions: Homo sapiens, SW-620, read-out: Growth percent
[28] = system: SF-295; assay: NCI60 one-dose screen; conditions: Homo sapiens, SF-295, read-out: Growth percent
[29] = system: SNB-75; assay: NCI60 one-dose screen; conditions: Homo sapiens, SNB-75, read-out: Growth percent
[30] = system: SK-MEL-28; assay: NCI60 one-dose screen; conditions: Homo sapiens, SK-MEL-28, read-out: Growth percent
[31] = system: UACC-257; assay: NCI60 one-dose screen; conditions: Homo sapiens, UACC-257, read-out: Growth percent
[32] = system: OVCAR-3; assay: NCI60 one-dose screen; conditions: Homo sapiens, OVCAR-3, read-out: Growth percent
[33] = system: OVCAR-4; assay: NCI60 one-dose screen; conditions: Homo sapiens, OVCAR-4, read-out: Growth percent
[34] = system: OVCAR-8; assay: NCI60 one-dose screen; conditions: Homo sapiens, OVCAR-8, read-out: Growth percent
[35] = system: SK-OV-3; assay: NCI60 one-dose screen; conditions: Homo sapiens, SK-OV-3, read-out: Growth percent
[36] = system: 786-0; assay: NCI60 one-dose screen; conditions: Homo sapiens, 786-0, read-out: Growth percent
[37] = system: A498; assay: NCI60 one-dose screen; conditions: Homo sapiens, A498, read-out: Growth percent
[38] = system: CAKI-1; assay: NCI60 one-dose screen; conditions: Homo sapiens, CAKI-1, read-out: Growth percent
[39] = system: RXF 393; assay: NCI60 one-dose screen; conditions: Homo sapiens, RXF 393, read-out: Growth percent
[40] = system: TK-10; assay: NCI60 one-dose screen; conditions: Homo sapiens, TK-10, read-out: Growth percent
[41] = system: PC-3; assay: NCI60 one-dose screen; conditions: Homo sapiens, PC-3, read-out: Growth percent
[42] = system: MDA-MB-231/ATCC; assay: NCI60 one-dose screen; conditions: Homo sapiens, MDA-MB-231, read-out: Growth percent
[43] = system: BT-549; assay: NCI60 one-dose screen; conditions: Homo sapiens, BT-549, read-out: Growth percent
[44] = system: T-47D; assay: NCI60 one-dose screen; conditions: Homo sapiens, T47D, read-out: Growth percent
[45] = system: MDA-MB-468; assay: NCI60 one-dose screen; conditions: Homo sapiens, MDA-MB-468, read-out: Growth percent

SMILES: CC[C@]12C=CCN3CC[C@@]4(c5ccc(OC)cc5N(C)[C@H]4[C@@](O)(C(=O)OC)[C@@H]1OC(=O)CCCC[P+](c1ccc(C)cc1)(c1ccc(C)cc1)c1ccc(C)cc1)[C@@H]32 [10a]
- GI50 [1]: 654 nM
- GI50 [2]: 611 nM
- GI50 [3]: 2670 nM
- GI50 [4]: 358 nM
- GI50 [5]: 1220 nM
- GI50 [6]: 960 nM
- GI50 [7]: 797 nM
- GI50 [8]: 1110 nM
- GI50 [9]: 1440 nM
- GI50 [10]: 1130 nM
- GI50 [11]: 12000 nM
- GI50 [12]: 1640 nM
- GI50 [13]: 450 nM
- GI50 [14]: 763 nM
- GI50 ([15]; read-out: GI50 Mean): 1070 nM
- GI50 ([16]; read-out: GI50 Mean): 720 nM
- GI50 ([17]; read-out: GI50 Mean): 920 nM
- GI50 ([18]; read-out: GI50 Mean): 2340 nM
- activity at 10 µM [19]: -25%
- activity at 10 µM [20]: -46%
- activity at 10 µM [21]: 25.8%
- activity at 10 µM [22]: -77.9%
- activity at 10 µM [23]: -82.7%
- activity at 10 µM [24]: -85.8%
- activity at 10 µM [25]: -90.1%
- activity at 10 µM [26]: -73.6%
- activity at 10 µM [27]: -88.2%
- activity at 10 µM [28]: -91.8%
- activity at 10 µM [29]: -87.6%
- activity at 10 µM [30]: -97.8%
- activity at 10 µM [31]: -95%
- activity at 10 µM [32]: -77.1%
- activity at 10 µM [33]: -68.9%
- activity at 10 µM [34]: -86.6%
- activity at 10 µM [35]: -82.3%
- activity at 10 µM [36]: -91%
- activity at 10 µM [37]: -90.9%
- activity at 10 µM [38]: -95.2%
- activity at 10 µM [39]: -87.6%
- activity at 10 µM [40]: -91.2%
- activity at 10 µM [41]: -73.2%
- activity at 10 µM [42]: -97.2%
- activity at 10 µM [43]: -97%
- activity at 10 µM [44]: -64.5%
- activity at 10 µM [45]: -92.5%

SMILES: CC[C@]12C=CCN3CC[C@@]4(c5ccc(OC)cc5N(C)[C@H]4[C@@](O)(C(=O)OC)[C@@H]1OC(=O)CCC[P+](c1ccccc1)(c1ccccc1)c1ccccc1OC)[C@@H]32 [9f]
- GI50 [1]: 125 nM
- GI50 [2]: 419 nM
- GI50 [3]: 2230 nM
- GI50 [4]: 356 nM
- GI50 [5]: 434 nM
- GI50 [6]: 313 nM
- GI50 [7]: 429 nM
- GI50 [8]: 1060 nM
- GI50 [9]: 735 nM
- GI50 [10]: 790 nM
- GI50 [11]: 26100 nM
- GI50 [12]: 1980 nM
- GI50 [13]: 268 nM
- GI50 [14]: 262 nM
- GI50 ([15]; read-out: Mean GI50): 1050 nM
- GI50 ([16]; read-out: Mean GI50): 1610 nM
- GI50 ([17]; read-out: Mean GI50): 490 nM
- GI50 ([18]; read-out: Mean GI50): 3080 nM
- activity at 10 µM [19]: 21.2%
- activity at 10 µM [20]: -38%
- activity at 10 µM [21]: -7.49%
- activity at 10 µM [22]: -58.4%
- activity at 10 µM [23]: -70.4%
- activity at 10 µM [24]: -93.1%
- activity at 10 µM [25]: 30.7%
- activity at 10 µM [26]: -93.4%
- activity at 10 µM [27]: -48.7%
- activity at 10 µM [28]: -42.3%
- activity at 10 µM [29]: -79.5%
- activity at 10 µM [30]: -63.3%
- activity at 10 µM [31]: -73%
- activity at 10 µM [32]: -75%
- activity at 10 µM [33]: -11.1%
- activity at 10 µM [34]: 6.9%
- activity at 10 µM [35]: -33.4%
- activity at 10 µM [36]: -74.1%
- activity at 10 µM [37]: -10.4%
- activity at 10 µM [38]: -40.2%
- activity at 10 µM [39]: -83.6%
- activity at 10 µM [40]: -88.5%
- activity at 10 µM [41]: 4.74%
- activity at 10 µM [42]: -94.5%
- activity at 10 µM [43]: -64.2%
- activity at 10 µM [44]: -25%
- activity at 10 µM [45]: -84.6%
